In patent publication US20080267932A1, “Lactobacillus Rhamnosus with Body-Fat Reducing Activity and the Foods Containing Them” (priority 2004, published 2008):

Tests used:
[1] = tested on: Lactobacillus rhamnosus Strain PL60; experiment: Antibiotic resistance (diameter of growth inhibition); assay type: cell-based; conditions: antibiotic against Lactobacillus rhamnosus Strain PL60
[2] = tested on: CLA production from LA; conditions: reported strains, for comparison; cited from earlier work
[3] = tested on: overweight people; conditions: cited from earlier work

Molecule	Diameter(mm) of growth inhibition [1]	other results
CC1(C)S[C@@H]2[C@H](NC(=O)[C@H](N)c3ccccc3)C(=O)N2[C@H]1C(=O)O [Ampicillin]	21 mm	
CC1(C)S[C@@H]2[C@H](NC(=O)C(C(=O)O)c3ccccc3)C(=O)N2[C@H]1C(=O)O (stereo partly shown) [Carbenicillin]	25 mm	
CCN1CCN(C(=O)N[C@@H](C(=O)N[C@@H]2C(=O)N3C(C(=O)O)=C(CSc4nnnn4C)CS[C@H]23)c2ccc(O)cc2)C(=O)C1=O [Cefoperazone]	22 mm	
CC(=O)OCC1=C(C(=O)O)N2C(=O)[C@@H](NC(=O)Cc3cccs3)[C@H]2SC1 [Cephalothin]	20 mm	
O=C(N[C@H](CO)[C@H](O)c1ccc([N+](=O)[O-])cc1)C(Cl)Cl [Chloramphenicol]	24 mm	
CCC[C@@H]1C[C@@H](C(=O)N[C@@H]([C@H]2O[C@H](SC)[C@H](O)[C@@H](O)[C@H]2O)[C@H](C)Cl)N(C)C1 [Clindamycin]	26 mm	
CC[C@H]1OC(=O)[C@H](C)[C@@H](O[C@H]2C[C@@](C)(OC)[C@@H](O)[C@H](C)O2)[C@H](C)[C@@H](O[C@@H]2O[C@H](C)C[C@H](N(C)C)[C@H]2O)[C@](C)(O)C[C@@H](C)C(=O)[C@H](C)[C@@H](O)[C@]1(C)O [Erythromycin]	28 mm	
Cc1onc(-c2ccccc2)c1C(=O)N[C@@H]1C(=O)N2[C@@H]1SC(C)(C)[C@@H]2C(=O)O [Oxacillin]	8 mm	
CCN1CCN(C(=O)N[C@@H](C(=O)N[C@@H]2C(=O)N3[C@@H]2SC(C)(C)[C@@H]3C(=O)O)c2ccccc2)C(=O)C1=O [Piperacilin]	30 mm	
CO[C@H]1/C=C/O[C@@]2(C)Oc3c(C)c(O)c4c(O)c(c(/C=N/N5CCN(C)CC5)c(O)c4c3C2=O)NC(=O)/C(C)=C\C=C\[C@H](C)[C@H](O)[C@@H](C)[C@@H](O)[C@@H](C)[C@H](OC(C)=O)[C@@H]1C [Rifampin]	24 mm	
[H]/N=C(/N)N[C@H]1[C@H](O)[C@@H](O)[C@H](O[C@@H]2O[C@@H](C)[C@](O)(C=O)[C@H]2O[C@@H]2O[C@@H](CO)[C@H](O)[C@@H](O)[C@@H]2NC)[C@@H](N/C(N)=N\[H])[C@@H]1O [Streptomycin]	11 mm	
CN(C)[C@@H]1C(O)=C(C(N)=O)C(=O)[C@@]2(O)C(O)=C3C(=O)c4c(O)cccc4[C@@](C)(O)[C@H]3C[C@@H]12 [Tetracycline]	29 mm	
CN[C@H](CC(C)C)C(=O)N[C@H]1C(=O)N[C@@H](CC(N)=O)C(=O)N[C@H]2C(=O)N[C@H]3C(=O)N[C@H](C(=O)N[C@H](C(=O)O)c4cc(O)cc(O)c4-c4cc3ccc4O)[C@H](O)c3ccc(c(Cl)c3)Oc3cc2cc(c3O[C@@H]2O[C@H](CO)[C@@H](O)[C@H](O)[C@H]2O[C@H]2C[C@](C)(N)[C@H](O)[C@H](C)O2)Oc2ccc(cc2Cl)[C@H]1O [Vancomycin]	6 mm	
Gentamicin	10 mm	
Lactobacillus reuteri		yield of t10c12 CLA [2]: 30 ppm
Penicillin	25 mm	
Trimethpprime/sulfamethoxasole	6 mm	
conjugated linoleic acid [CLA]		weight loss ([3]; 180 overweight people, administered for one year): 4-10%; side effects ([3]; in vivo): without side effects
